Measurements: patent US6906205B2, “Spiro and dispiro 1,2,4-trioxolane antimalarials” (Medicines for Malaria Venture MMV, priority 2002, dated 2005)
Converted amounts (≈) assume the structure as drawn.

Test system: P. falciparum NF54 strain (sensitive to standard antimalarials)
Test: semiautomated microdilution assay, [3H]-hypoxanthine incorporation, NF54 strain
Type: cell-based, Plasmodium falciparum
Conditions: NF54 strain, 72 h incubation
Summary of the method: (§1)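 Logit regression analysis was used to estimate IC50 values. Parasites were intraerythrocytic forms from asynchronous stock cultures, and compounds were tested by semiautomated microdilution.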

Row | SMILES | IC50 (ng/ml) NF54
1 | O=C(O)C1(c2ccccc2)CCC2(CC1)OOC1(O2)C2CC3CC(C2)CC1C3 (stereo not drawn) [OZ99] | 27 ng/mL (≈ 70.2 nM)
2 | NC(=O)CCNC[C@H]1CC[C@]2(CC1)OO[C@]1(O2)C2CC3CC(C2)CC1C3 [OZ319] | 0.91 ng/mL (≈ 2.5 nM)
3 | Fc1c(F)c(F)c(C2(c3c(F)c(F)c(F)c(F)c3F)OOC3(O2)C2CC4CC(C2)CC3C4)c(F)c1F (stereo not drawn) [OZ45] | 27 ng/mL (≈ 51.1 nM)
4 | O=S(=O)(C[C@H]1CC[C@]2(CC1)OOC1(O2)C2CC3CC(C2)CC1C3)c1ccccc1 (stereo partly drawn) [OZ210] | 1.6 ng/mL (≈ 3.82 nM)
5 | COc1ccc(S(=O)(=O)N2CCC3(CC2)OOC2(O3)C3CC4CC(C3)CC2C4)cc1 (stereo not drawn) [OZ59] | 1.3 ng/mL (≈ 2.98 nM)
6 | NC(=O)CN(CC(N)=O)C[C@H]1CC[C@]2(CC1)OOC1(O2)C2CC3CC(C2)CC1C3 (stereo partly drawn) [OZ236] | 2.0/2.0 ng/ml

Test system: P. falciparum K1 strain (Thailand resistant to chloroquine)
Test: semiautomated microdilution assay, [3H]-hypoxanthine incorporation, K1 strain
Type: cell-based, Plasmodium falciparum
Conditions: K1 strain, 72 h incubation
Summary of the method: as §1

Row | SMILES | IC50 (ng/ml) K1
7 | O=C(O)C1(c2ccccc2)CCC2(CC1)OOC1(O2)C2CC3CC(C2)CC1C3 (stereo not drawn) [OZ99] | 77 ng/mL (≈ 200 nM)
8 | NC(=O)CCNC[C@H]1CC[C@]2(CC1)OO[C@]1(O2)C2CC3CC(C2)CC1C3 [OZ319] | 0.41 ng/mL (≈ 1.12 nM)
9 | Fc1c(F)c(F)c(C2(c3c(F)c(F)c(F)c(F)c3F)OOC3(O2)C2CC4CC(C2)CC3C4)c(F)c1F (stereo not drawn) [OZ45] | 17 ng/mL (≈ 32.2 nM)
10 | O=S(=O)(C[C@H]1CC[C@]2(CC1)OOC1(O2)C2CC3CC(C2)CC1C3)c1ccccc1 (stereo partly drawn) [OZ210] | 1.4 ng/mL (≈ 3.34 nM)
11 | COc1ccc(S(=O)(=O)N2CCC3(CC2)OOC2(O3)C3CC4CC(C3)CC2C4)cc1 (stereo not drawn) [OZ59] | 1.4 ng/mL (≈ 3.21 nM)
12 | NC(=O)CN(CC(N)=O)C[C@H]1CC[C@]2(CC1)OOC1(O2)C2CC3CC(C2)CC1C3 (stereo partly drawn) [OZ236] | 2.0/2.0 ng/ml

Test system: ANKA strain of P. berghei
Test: single dose STI in vivo screen in infected mice
Parameters: species or system Plasmodium berghei
Conditions: percent reduction in parasitemia day 3 post-infection; single 3 mg/kg po in SSV
Summary of the method: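 Groups of 3-5 Moro SPF or NMRI mice infected with the ANKA strain of P. berghei received a single dose of trioxolane on day one post-infection. The compound was given in 3% ethanol and 7% Tween 80 or in SSV (0.5% w/v CMC, 0.5% v/v benzyl alcohol, 0.4% v/v Tween 80, 0.9% w/v sodium chloride in water). Antimalarial activity was scored as percent reduction in parasitemia on day three and as survival time versus untreated controls. Survival to day 30 counted as cure.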

Row | SMILES | Activity (%) 3 mg/kg SSV po
13 | NC(=O)CCNC[C@H]1CC[C@]2(CC1)OO[C@]1(O2)C2CC3CC(C2)CC1C3 [OZ319] | 99.14%

Same assay, conditions: percent reduction in parasitemia day 3 post-infection; single 10 mg/kg po in 3% ethanol and 7% Tween 80; mice

Row | SMILES | Activity (%) po
14 | O=C(O)C1(c2ccccc2)CCC2(CC1)OOC1(O2)C2CC3CC(C2)CC1C3 (stereo not drawn) [OZ99] | 30%
15 | Fc1c(F)c(F)c(C2(c3c(F)c(F)c(F)c(F)c3F)OOC3(O2)C2CC4CC(C2)CC3C4)c(F)c1F (stereo not drawn) [OZ45] | 15%
16 | O=S(=O)(C[C@H]1CC[C@]2(CC1)OOC1(O2)C2CC3CC(C2)CC1C3)c1ccccc1 (stereo partly drawn) [OZ210] | 99.23%
17 | COc1ccc(S(=O)(=O)N2CCC3(CC2)OOC2(O3)C3CC4CC(C3)CC2C4)cc1 (stereo not drawn) [OZ59] | 51%
18 | NC(=O)CN(CC(N)=O)C[C@H]1CC[C@]2(CC1)OOC1(O2)C2CC3CC(C2)CC1C3 (stereo partly drawn) [OZ236] | 89%

Same assay, conditions: percent reduction in parasitemia day 3 post-infection; single 10 mg/kg po in SSV

Row | SMILES | Activity (%) 10 mg/kg SSV po
19 | NC(=O)CCNC[C@H]1CC[C@]2(CC1)OO[C@]1(O2)C2CC3CC(C2)CC1C3 [OZ319] | 99.92%

Same assay, conditions: percent reduction in parasitemia day 3 post-infection; single 10 mg/kg sc in 3% ethanol and 7% Tween 80; mice

Row | SMILES | Activity (%) sc
20 | O=C(O)C1(c2ccccc2)CCC2(CC1)OOC1(O2)C2CC3CC(C2)CC1C3 (stereo not drawn) [OZ99] | 36%
21 | Fc1c(F)c(F)c(C2(c3c(F)c(F)c(F)c(F)c3F)OOC3(O2)C2CC4CC(C2)CC3C4)c(F)c1F (stereo not drawn) [OZ45] | 16%
22 | O=S(=O)(C[C@H]1CC[C@]2(CC1)OOC1(O2)C2CC3CC(C2)CC1C3)c1ccccc1 (stereo partly drawn) [OZ210] | 99.94%
23 | COc1ccc(S(=O)(=O)N2CCC3(CC2)OOC2(O3)C3CC4CC(C3)CC2C4)cc1 (stereo not drawn) [OZ59] | 99.95%
24 | NC(=O)CN(CC(N)=O)C[C@H]1CC[C@]2(CC1)OOC1(O2)C2CC3CC(C2)CC1C3 (stereo partly drawn) [OZ236] | 98.61%

Same assay, conditions: percent reduction in parasitemia day 3 post-infection; single po dose in standard suspending vehicle (SSV); mice

Row | SMILES | Activity (%) SSVpo
25 | O=C(O)C1(c2ccccc2)CCC2(CC1)OOC1(O2)C2CC3CC(C2)CC1C3 (stereo not drawn) [OZ99] | 40%
26 | O=S(=O)(C[C@H]1CC[C@]2(CC1)OOC1(O2)C2CC3CC(C2)CC1C3)c1ccccc1 (stereo partly drawn) [OZ210] | 77%
27 | NC(=O)CN(CC(N)=O)C[C@H]1CC[C@]2(CC1)OOC1(O2)C2CC3CC(C2)CC1C3 (stereo partly drawn) [OZ236] | 86%

Same assay, conditions: single 3 mg/kg po in SSV

Row | SMILES | Survival (days) 3 mg/kg SSV po
28 | NC(=O)CCNC[C@H]1CC[C@]2(CC1)OO[C@]1(O2)C2CC3CC(C2)CC1C3 [OZ319] | 10.8 days

Same assay, conditions: single 10 mg/kg po in 3% ethanol and 7% Tween 80; untreated control 5.6 ± 0.3

Row | SMILES | Survival (days) po
29 | O=C(O)C1(c2ccccc2)CCC2(CC1)OOC1(O2)C2CC3CC(C2)CC1C3 (stereo not drawn) [OZ99] | 6.3 days
30 | Fc1c(F)c(F)c(C2(c3c(F)c(F)c(F)c(F)c3F)OOC3(O2)C2CC4CC(C2)CC3C4)c(F)c1F (stereo not drawn) [OZ45] | 6.0 days
31 | O=S(=O)(C[C@H]1CC[C@]2(CC1)OOC1(O2)C2CC3CC(C2)CC1C3)c1ccccc1 (stereo partly drawn) [OZ210] | 9.3 days
32 | COc1ccc(S(=O)(=O)N2CCC3(CC2)OOC2(O3)C3CC4CC(C3)CC2C4)cc1 (stereo not drawn) [OZ59] | 6.0 days
33 | NC(=O)CN(CC(N)=O)C[C@H]1CC[C@]2(CC1)OOC1(O2)C2CC3CC(C2)CC1C3 (stereo partly drawn) [OZ236] | 6.3 days

Same assay, conditions: single 10 mg/kg po in SSV

Row | SMILES | Survival (days) 10 mg/kg SSV po
34 | NC(=O)CCNC[C@H]1CC[C@]2(CC1)OO[C@]1(O2)C2CC3CC(C2)CC1C3 [OZ319] | 10.6 days

Same assay, conditions: single 10 mg/kg sc in 3% ethanol and 7% Tween 80; untreated control 5.6 ± 0.3

Row | SMILES | Survival (days) sc
35 | O=C(O)C1(c2ccccc2)CCC2(CC1)OOC1(O2)C2CC3CC(C2)CC1C3 (stereo not drawn) [OZ99] | 6.3 days
36 | Fc1c(F)c(F)c(C2(c3c(F)c(F)c(F)c(F)c3F)OOC3(O2)C2CC4CC(C2)CC3C4)c(F)c1F (stereo not drawn) [OZ45] | 5.0 days
37 | O=S(=O)(C[C@H]1CC[C@]2(CC1)OOC1(O2)C2CC3CC(C2)CC1C3)c1ccccc1 (stereo partly drawn) [OZ210] | 10.3 days
38 | COc1ccc(S(=O)(=O)N2CCC3(CC2)OOC2(O3)C3CC4CC(C3)CC2C4)cc1 (stereo not drawn) [OZ59] | 10.0 days
39 | NC(=O)CN(CC(N)=O)C[C@H]1CC[C@]2(CC1)OOC1(O2)C2CC3CC(C2)CC1C3 (stereo partly drawn) [OZ236] | 7.7 days

Same assay, conditions: single po dose in SSV; untreated control 5.6 ± 0.3

Row | SMILES | Survival (days) SSVpo
40 | O=C(O)C1(c2ccccc2)CCC2(CC1)OOC1(O2)C2CC3CC(C2)CC1C3 (stereo not drawn) [OZ99] | 5.7 days
41 | O=S(=O)(C[C@H]1CC[C@]2(CC1)OOC1(O2)C2CC3CC(C2)CC1C3)c1ccccc1 (stereo partly drawn) [OZ210] | 8.0 days
42 | NC(=O)CN(CC(N)=O)C[C@H]1CC[C@]2(CC1)OOC1(O2)C2CC3CC(C2)CC1C3 (stereo partly drawn) [OZ236] | 7.7 days
